Assay results reported in US20070088414A1, “Particulate formulations for intradermal delivery of biologically active agents” (priority 2005, published 2007).

How the values were obtained:
[1] = Payload determination, low molecular weight substance (SRB); assay type: physicochemical; conditions: SRB dye encapsulated in liposomes, released with 5% Triton X-100, read at 565 nm
Experimental: To determine the phospholipid concentration of liposomes, 10 μl of each liposome solution was placed in a 16×100 mm glass tube along with 0.4 ml of 10 N sulfuric acid. A set of phosphate standards was prepared from a 0.645 mM stock (Sigma P3869) which was also assayed in glass tubes alongside the liposome samples. Samples, standards and blank tubes were run in duplicate. All tubes were placed in a heating block and digested for 30 minutes at 180° C. Tubes were then removed from the heating block and cooled for 5 minutes before adding 100 μl of 9% hydrogen peroxide. All tubes were then again heated for 30 minutes at 180° C. […] All standards, samples and blanks were read at 820 nm on a spectrophotometer. Using the known standard values, a curve was generated from which phosphate concentration values can be calculated for each of the liposome samples. Phosphate concentration values are expressed as μmoles Pi/mL. […]
Sulfa rhodamine-B sodium salt (“SRB”) was used to determine payload capacity for a low molecular weight substance. […] All samples and standards were then read at 565 nm on a spectrophotometer. SRB dye payload molar concentrations were then calculated from the known standard curve. Using this procedure, the payload for SRB was determined to be about 10.956 nmoles per 50 nmoles of phosphate. […]

[2] = Lymph node penetration assay; conditions: Intradermal injection, liposomes 30 minutes after avidin, nodes harvested 24 hours, sodium salt
Experimental: Avidin was purchased from Sigma, with the concentration at 10 mg/ml. Avidin was hydrated with injectable saline. A 50 μl aliquot, at a dose of 250 μg, was delivered as described.
SRB was purchased from Sigma (Cat.# S9012). SRB was selected for its high solubility, and due to the fact that it is readily visible to the naked eye and has fluorescent properties.
An LUV process was used to make the SRB-liposomes. Two basic formulations were developed—hi and low PE-biotin content. […] The liposome formulation contained the following: DSPC (94.0 mg; 119.0 μmoles); DSPG (10.3 mg; 13.2 μmoles); Chol (50.9 mg; 132.0 μmoles); and Diol Biotin (2.6 mg; 2.64 μmoles). The mixture was brought to about 20 ml with chloroform and methanol at a 10:1 ratio. Organic solvent was removed at 45° C. A thin film on a rotovap flask was hydrated in 18 ml of 0.1M SRB prepared in buffer (1 mM EDTA, 0.2% NaN3, pH=8.0). The lipid dye suspension was then extruded through a series of nucleopore membranes (5.0. 1.0, 0.8, 0.6, 0.4, 0.2, 0.1, 0.05 micron). Approximately 5 ml was saved after the 0.2, 0.1 and 0.05 micron membranes. Each of the 5 ml preps was centrifuged, and pellets washed with osmotically adjusted (physiological 310 mOSM) buffer. After the free SRB was washed away, the final liposome pellets were resuspended in the same buffer to the final volume of 1 ml. […]

[3] = intravenous, 200 uL single tail vein injection
Experimental: IV delivery of free and particulate ICG was administered in a 200 uL volume in a single tail vein injection.

SMILES | payload for SRB [1] | Visible Aggregation/Accumulation in Axillary Node ([2]; listed as Free SRB liposomes) | Visible Aggregation/Accumulation in Axillary Node [2] | accumulation across the peritoneal cavity [3]
CCN(CC)c1ccc2c(-c3ccc(S(=O)(=O)[O-])cc3S(=O)(=O)[O-])c3ccc(=[N+](CC)CC)cc-3oc2c1.[Na+] [free SRB, Sulfa rhodamine-B sodium salt] | about 10.956 nmoles per 50 nmoles of phosphate | no SRB color retention in the node | No | –
CC1(C)C(/C=C/C=C/C=C/C=C2\N(CCCCS(=O)(=O)O)c3ccc4ccccc4c3C2(C)C)=[N+](CCCCS(=O)(=O)[O-])c2ccc3ccccc3c21 [free cardiogreen, Indocyanine Green] | – | – | – | manifested accumulation across the peritoneal cavity
